# Key:
# Type in all cases: in vivo
# Details in all cases: treatment dosage 320 g/ha
# barnyard grass [1] = assay: Test Example 1: weedkilling efficacy, preemergent weed treatment in the submerged state; A: barnyard grass
# Method in brief: (§1)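 Visual scores against set criteria were taken 3 weeks after treatment. Compounds, as diluted emulsions at specified g/ha, went onto the water surface of 4 cm-flooded alluvial soil pots on the day weeds were sown and 2.5-leaf rice was transplanted; greenhouse held 25–30 °C.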
# bulrush [2] = assay: Test Example 1: weedkilling efficacy, preemergent weed treatment in the submerged state; B: bulrush
# Method in brief: as §1
# oval-leafed pondweed [3] = assay: Test Example 1: weedkilling efficacy, preemergent weed treatment in the submerged state; C: oval-leafed pondweed
# Method in brief: as §1
# transplanted rice = assay: Test Example 1: preemergent weed treatment in the submerged state, effect on crop; a: transplanted rice
# Method in brief: as §1
# barnyard grass [4] = assay: Test Example 2: weedkilling efficacy, growth period weed treatment in the submerged state; A: barnyard grass
# Method in brief: (§2)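 Barnyard grass, bulrush and oval-leafed pondweed sown in alluvial soil under 4 cm flooding, greenhouse 25 to 30° C. At 1-2 leaf stage, water-diluted emulsion applied to the water surface at stated g/ha dosages; effects scored 3 weeks later.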
# bulrush [5] = assay: Test Example 2: weedkilling efficacy, growth period weed treatment in the submerged state; B: bulrush
# Method in brief: as §2
# oval-leafed pondweed [6] = assay: Test Example 2: weedkilling efficacy, growth period weed treatment in the submerged state; C: oval-leafed pondweed
# Method in brief: as §2
# crabgrass [7] = assay: Test Example 3: weedkilling efficacy through soil treatment; D: crabgrass
# Method in brief: (§3)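 Crop and weed responses were judged three weeks after a uniform surface spray of the water-diluted emulsion at the given g/ha rate. Seeds sat beneath about 1.5 cm of sterilized diluvial soil, and boxes stood in a greenhouse at 25 to 30° C.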
# green foxtail [8] = assay: Test Example 3: weedkilling efficacy through soil treatment; E: green foxtail
# Method in brief: as §3
# barnyard grass [9] = assay: Test Example 3: weedkilling efficacy through soil treatment; F: barnyard grass
# Method in brief: as §3
# wild oat [10] = assay: Test Example 3: weedkilling efficacy through soil treatment; G: wild oat
# Method in brief: as §3
# black-grass [11] = assay: Test Example 3: weedkilling efficacy through soil treatment; H: black-grass
# Method in brief: as §3
# Italian ryegrass [12] = assay: Test Example 3: weedkilling efficacy through soil treatment; I: Italian ryegrass
# Method in brief: as §3
# common wind-grass [13] = assay: Test Example 3: weedkilling efficacy through soil treatment; J: common wind-grass
# Method in brief: as §3
# Indian mallow [14] = assay: Test Example 3: weedkilling efficacy through soil treatment; K: Indian mallow
# Method in brief: as §3
# redroot pigweed [15] = assay: Test Example 3: weedkilling efficacy through soil treatment; L: redroot pigweed
# Method in brief: as §3
# catchweed [16] = assay: Test Example 3: weedkilling efficacy through soil treatment; O: catchweed
# Method in brief: as §3
# birds-eye speedwell = assay: Test Example 3: weedkilling efficacy through soil treatment; p: birds-eye speedwell
# Method in brief: as §3
# directly sown rice [17] = assay: Test Example 3: soil treatment, effect on crop; b: directly sown rice
# Method in brief: as §3
# corn [18] = assay: Test Example 3: soil treatment, effect on crop; c: corn
# Method in brief: as §3
# soybean [19] = assay: Test Example 3: soil treatment, effect on crop; d: soybean
# Method in brief: as §3
# wheat [20] = assay: Test Example 3: soil treatment, effect on crop; e: wheat
# Method in brief: as §3
# beet [21] = assay: Test Example 3: soil treatment, effect on crop; f: beet
# Method in brief: as §3
# rapeseed [22] = assay: Test Example 3: soil treatment, effect on crop; g: rapeseed
# Method in brief: as §3
# crabgrass [23] = assay: Test Example 4: weedkilling efficacy by foliar treatment; D: crabgrass
# Method in brief: (§4)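 Seeds are spot-sown into sterilized diluvial soil and covered with about 1.5 cm of soil. After 14 days' greenhouse growth at 25 to 30° C, plants are sprayed on stems and leaves with diluted emulsion at the stated g/ha rate, then scored at 3 weeks.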
# green foxtail [24] = assay: Test Example 4: weedkilling efficacy by foliar treatment; E: green foxtail
# Method in brief: as §4
# barnyard grass [25] = assay: Test Example 4: weedkilling efficacy by foliar treatment; F: barnyard grass
# Method: Testing of Weedkilling Efficacy by Foliar Treatment
# Sterilized diluvial soil was introduced into 21 cm long, 13 cm wide, 7 cm deep plastic boxes, and seeds of crabgrass, green foxtail, barnyard grass, wild oat, black-grass, Italian ryegrass, common wind-grass, Indian mallow, redroot pigweed, fig-leafed goosefoot, chickweed, catchweed, birds-eye speedwell, corn, soybean, rice, wheat, beet and rapeseed were each spot-sown, and covered with about 1.5 cm of soil, then the plants were grown in a greenhouse at 25 to 30° C.
# After they had grown for 14 days, emulsions of compounds of the present invention prepared according to compounding example 2 were diluted with water to give the specified dosages, and applied uniformly onto the stem and leaf parts with a small sprayer. 3 weeks after the pesticide treatment the effect on each type of plant was investigated on the basis of the assessment criteria of test example 1.
# A: barnyard grass, B: bulrush, C: oval-leafed pondweed, D: crabgrass, E: green foxtail, F: barnyard grass, G: wild oat, H: black-grass, I: Italian ryegrass, J: common wind-grass, K: Indian mallow, L: redroot pigweed, M: fig-leafed goosefoot, N: chickweed, O: catchweed, p: birds-eye speedwell, a: transplanted rice, b: directly sown rice, c: corn, d: soybean, e: wheat, f: beet, g: rapeseed
# Further, pesticide dosage (g/ha) indicates the concentration regulated such that treatment was with only the stated number of grams (g), when calculated per hectare (ha).
# wild oat [26] = assay: Test Example 4: weedkilling efficacy by foliar treatment; G: wild oat
# Method in brief: as §4
# black-grass [27] = assay: Test Example 4: weedkilling efficacy by foliar treatment; H: black-grass
# Method in brief: as §4
# Italian ryegrass [28] = assay: Test Example 4: weedkilling efficacy by foliar treatment; I: Italian ryegrass
# Method in brief: as §4
# common wind-grass [29] = assay: Test Example 4: weedkilling efficacy by foliar treatment; J: common wind-grass
# Method in brief: as §4
# Indian mallow [30] = assay: Test Example 4: weedkilling efficacy by foliar treatment; K: Indian mallow
# Method in brief: as §4
# redroot pigweed [31] = assay: Test Example 4: weedkilling efficacy by foliar treatment; L: redroot pigweed
# Method in brief: as §4
# fig-leafed goosefoot = assay: Test Example 4: weedkilling efficacy by foliar treatment; M: fig-leafed goosefoot
# Method in brief: as §4
# chickweed = assay: Test Example 4: weedkilling efficacy by foliar treatment; N: chickweed
# Method in brief: as §4
# catchweed [32] = assay: Test Example 4: weedkilling efficacy by foliar treatment; O: catchweed
# Method in brief: as §4
# directly sown rice [33] = assay: Test Example 4: foliar treatment, effect on crop; b: directly sown rice
# Method in brief: as §4
# corn [34] = assay: Test Example 4: foliar treatment, effect on crop; c: corn
# Method in brief: as §4
# soybean [35] = assay: Test Example 4: foliar treatment, effect on crop; d: soybean
# Method in brief: as §4
# wheat [36] = assay: Test Example 4: foliar treatment, effect on crop; e: wheat
# Method in brief: as §4
# beet [37] = assay: Test Example 4: foliar treatment, effect on crop; f: beet
# Method in brief: as §4
# rapeseed [38] = assay: Test Example 4: foliar treatment, effect on crop; g: rapeseed
# Method in brief: as §4
compound,measurement,setting,value
CC1=C(c2ccccc2)C(=O)N(C(C)(C)C(=O)Nc2cc(Br)cc(F)n2)CO1 [B-2-35],A (barnyard grass) weedkilling efficacy grade,barnyard grass [1],"5 (weed kill ratio 90% or more, (practically complete withering))"
same,B (bulrush) weedkilling efficacy grade,bulrush [2],"5 (weed kill ratio 90% or more, (practically complete withering))"
same,C (oval-leafed pondweed) weedkilling efficacy grade,oval-leafed pondweed [3],"5 (weed kill ratio 90% or more, (practically complete withering))"
same,a (transplanted rice) effect on crop grade,transplanted rice,0 (weed kill ratio 5% or less (practically no effect))
same,A (barnyard grass) weedkilling efficacy grade,barnyard grass [4],"5 (weed kill ratio 90% or more, (practically complete withering))"
same,B (bulrush) weedkilling efficacy grade,bulrush [5],"5 (weed kill ratio 90% or more, (practically complete withering))"
same,C (oval-leafed pondweed) weedkilling efficacy grade,oval-leafed pondweed [6],"5 (weed kill ratio 90% or more, (practically complete withering))"
same,D (crabgrass) weedkilling efficacy grade,crabgrass [7],"5 (weed kill ratio 90% or more, (practically complete withering))"
same,E (green foxtail) weedkilling efficacy grade,green foxtail [8],"5 (weed kill ratio 90% or more, (practically complete withering))"
same,F (barnyard grass) weedkilling efficacy grade,barnyard grass [9],"4 (weed kill ratio 70% or more, less than 90%)"
same,G (wild oat) weedkilling efficacy grade,wild oat [10],"4 (weed kill ratio 70% or more, less than 90%)"
same,H (black-grass) weedkilling efficacy grade,black-grass [11],"5 (weed kill ratio 90% or more, (practically complete withering))"
same,I (Italian ryegrass) weedkilling efficacy grade,Italian ryegrass [12],"5 (weed kill ratio 90% or more, (practically complete withering))"
same,J (common wind-grass) weedkilling efficacy grade,common wind-grass [13],"5 (weed kill ratio 90% or more, (practically complete withering))"
same,K (Indian mallow) weedkilling efficacy grade,Indian mallow [14],"4 (weed kill ratio 70% or more, less than 90%)"
same,L (redroot pigweed) weedkilling efficacy grade,redroot pigweed [15],"3 (weed kill ratio 40% or more, less than 70%)"
same,O (catchweed) weedkilling efficacy grade,catchweed [16],0 (weed kill ratio 5% or less (practically no effect))
same,P (birds-eye speedwell) weedkilling efficacy grade,birds-eye speedwell,"4 (weed kill ratio 70% or more, less than 90%)"
same,b (directly sown rice) effect on crop grade,directly sown rice [17],"2 (weed kill ratio 20% or more, less than 40%)"
same,c (corn) effect on crop grade,corn [18],"1 (weed kill ratio 5% or more, less than 20%)"
same,d (soybean) effect on crop grade,soybean [19],0 (weed kill ratio 5% or less (practically no effect))
same,e (wheat) effect on crop grade,wheat [20],"1 (weed kill ratio 5% or more, less than 20%)"
same,f (beet) effect on crop grade,beet [21],"4 (weed kill ratio 70% or more, less than 90%)"
same,g (rapeseed) effect on crop grade,rapeseed [22],"4 (weed kill ratio 70% or more, less than 90%)"
same,D (crabgrass) weedkilling efficacy grade,crabgrass [23],"5 (weed kill ratio 90% or more, (practically complete withering))"
same,E (green foxtail) weedkilling efficacy grade,green foxtail [24],"5 (weed kill ratio 90% or more, (practically complete withering))"
same,F (barnyard grass) weedkilling efficacy grade,barnyard grass [25],"5 (weed kill ratio 90% or more, (practically complete withering))"
same,G (wild oat) weedkilling efficacy grade,wild oat [26],"2 (weed kill ratio 20% or more, less than 40%)"
same,H (black-grass) weedkilling efficacy grade,black-grass [27],"4 (weed kill ratio 70% or more, less than 90%)"
same,I (Italian ryegrass) weedkilling efficacy grade,Italian ryegrass [28],"4 (weed kill ratio 70% or more, less than 90%)"
same,J (common wind-grass) weedkilling efficacy grade,common wind-grass [29],"4 (weed kill ratio 70% or more, less than 90%)"
same,K (Indian mallow) weedkilling efficacy grade,Indian mallow [30],"3 (weed kill ratio 40% or more, less than 70%)"
same,L (redroot pigweed) weedkilling efficacy grade,redroot pigweed [31],"3 (weed kill ratio 40% or more, less than 70%)"
same,M (fig-leafed goosefoot) weedkilling efficacy grade,fig-leafed goosefoot,"4 (weed kill ratio 70% or more, less than 90%)"
same,N (chickweed) weedkilling efficacy grade,chickweed,"3 (weed kill ratio 40% or more, less than 70%)"
same,O (catchweed) weedkilling efficacy grade,catchweed [32],"5 (weed kill ratio 90% or more, (practically complete withering))"
same,b (directly sown rice) effect on crop grade,directly sown rice [33],"4 (weed kill ratio 70% or more, less than 90%)"
same,c (corn) effect on crop grade,corn [34],"1 (weed kill ratio 5% or more, less than 20%)"
same,d (soybean) effect on crop grade,soybean [35],"4 (weed kill ratio 70% or more, less than 90%)"
same,e (wheat) effect on crop grade,wheat [36],0 (weed kill ratio 5% or less (practically no effect))
same,f (beet) effect on crop grade,beet [37],"3 (weed kill ratio 40% or more, less than 70%)"
same,g (rapeseed) effect on crop grade,rapeseed [38],"4 (weed kill ratio 70% or more, less than 90%)"

# — patent US9738634B2, “Heterocyclic amide compound and herbicide” (SYNGENTA PARTICIPATIONS AG, priority 2013, dated 2017)
